Assay results from patent US8343477B2, “Inhibitors of hepatitis C virus” (Bristol-Myers Squibb Company, priority 2006, dated 2013).

Assays:
[1] = biological target: HCV NS3/4A protease complex, BMS strain (Hepatitis C virus genotype 1a, UniProt P27958); assay: FRET peptide assay to monitor HCV NS3/4A proteolytic activity, BMS strain; type: biochemical, HCV genotype 1a; conditions: read-out: IC50 against the NS3/4A BMS strain in the enzyme assay
Source text: (§1) HCV NS3 protease complexes, derived from the BMS strain, H77 strain or J4L6S strain, were generated, as described below. These purified recombinant proteins were generated for use in a homogeneous assay (see below) to provide an indication of how effective compounds of the present disclosure would be in inhibiting HCV NS3 proteolytic activity.
Serum from an HCV-infected patient was obtained from Dr. T. Wright, San Francisco Hospital. […]
In order to monitor HCV NS3/4A protease activity, an NS3/4A peptide substrate was used. […] The peptide also contains a fluorescence donor, EDANS, near one end of the peptide and an acceptor, DABCYL, near the other end. The fluorescence of the peptide is quenched by […] resonance energy transfer (RET) between the donor and the acceptor, but as the NS3 protease cleaves the peptide the products are released from RET quenching and the fluorescence of the donor becomes apparent.
The peptide substrate was incubated with one of the three recombinant NS3/4A protease complexes, in the absence or presence of a compound of the present disclosure. The inhibitory effects of a compound was determined by monitoring the formation of fluorescent reaction product in real time using a Cytofluor Series 4000. […]

[2] = biological target: T1, HCV NS3/4A protease complex, J4L6S strain (Hepatitis C virus genotype 1b, UniProt O92972, C1454S/C1711G); assay: FRET peptide assay to monitor HCV NS3/4A proteolytic activity, J4L6S strain; type: biochemical, HCV genotype 1b; conditions: J4L6S strain (1b genotype)
T1 construct: DNA encoding the recombinant HCV NS3/4A protease complex (amino acids 1027 to 1711) for these strains; inferred from pET21b vector and Ni-NTA purification; made in house; host or cells: Escherichia coli BL21 (DE3), pET21b
T1 sequence (O92972 1027-1711 C1454S/C1711G, one chain of several): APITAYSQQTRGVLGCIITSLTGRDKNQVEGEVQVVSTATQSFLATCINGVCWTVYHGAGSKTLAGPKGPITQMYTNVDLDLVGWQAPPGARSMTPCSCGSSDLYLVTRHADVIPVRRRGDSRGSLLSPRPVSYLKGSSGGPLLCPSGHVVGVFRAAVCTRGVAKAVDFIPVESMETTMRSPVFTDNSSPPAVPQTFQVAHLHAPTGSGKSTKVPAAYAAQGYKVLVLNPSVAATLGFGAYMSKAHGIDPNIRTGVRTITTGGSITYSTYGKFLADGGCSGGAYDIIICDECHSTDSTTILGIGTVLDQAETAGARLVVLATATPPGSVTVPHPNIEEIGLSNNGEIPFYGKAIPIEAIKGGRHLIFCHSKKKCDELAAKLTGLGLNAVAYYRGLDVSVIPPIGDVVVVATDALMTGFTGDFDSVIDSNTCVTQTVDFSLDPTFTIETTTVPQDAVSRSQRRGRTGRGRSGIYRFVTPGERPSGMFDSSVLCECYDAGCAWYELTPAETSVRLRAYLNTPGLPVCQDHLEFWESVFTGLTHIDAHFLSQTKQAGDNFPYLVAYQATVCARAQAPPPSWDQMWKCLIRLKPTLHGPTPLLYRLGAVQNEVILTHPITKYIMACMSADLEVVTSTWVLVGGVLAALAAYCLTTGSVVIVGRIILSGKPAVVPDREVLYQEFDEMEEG
Source text: as §1
(§2) Serum from an HCV-infected patient was obtained from Dr. T. Wright, San Francisco Hospital. An engineered full-length cDNA (compliment deoxyribonucleic acid) template of the HCV genome (BMS strain) was constructed from DNA fragments obtained by reverse transcription-PCR(RT-PCR) of serum RNA (ribonucleic acid) and using primers selected on the basis of homology between other genotype 1a strains. From the determination of the entire genome sequence, a genotype 1a was assigned to the HCV isolate according to the classification of Simmonds et al. (See P Simmonds, K A Rose, S Graham, S W Chan, F McOmish, B C Dow, E A Follett, P L Yap and H Marsden, J. Clin. Microbiol., 31(6), 1493-1503 (1993)). […]

[3] = test system: human pancreatic chymotrypsin; assay: Specificity assay, chymotrypsin (pNA substrate); type: biochemical; conditions: read-out: Chymotrypsin activity in the specificity assays (IC50)
Description: The specificities of compounds of the present disclosure were determined against a variety of serine proteases: human neutrophil elastase (HNE), porcine pancreatic elastase (PPE) and human pancreatic chymotrypsin and one cysteine protease: human liver cathepsin B. In all cases, a 96-well plate format protocol using colorimetric p-nitroaniline (pNA) substrate or fluorometric Amino-Methyl-Coumarin (AMC) substrate, specific for each enzyme was used as described previously (PCT Patent Application No. WO 00/09543) with some modifications. All enzymes were purchased from Sigma or EMDbiosciences while the substrates were from Bachem.
Each pNA assay included a 2 h enzyme-inhibitor pre-incubation at room temperature followed by addition of substrate and hydrolysis to ˜15% conversion as measured on a Spectramax Pro microplate reader. The cathepsin B assay was initiated by adding substrate to a 10 min enzyme-inhibitor pre-incubation at room temperature, and the assay plate measured immediately using the Cytofluor Series 4000. Compound concentrations varied from 100 to 0.4 μM depending on their potency.
50 mM Tris(hydroxymethyl)aminomethane hydrochloride (Tris-HCl) pH 8, 0.5 M Sodium Sulfate (Na2SO4), 50 mM NaCl, 0.1 mM EDTA, 3% DMSO, 0.01% Tween-20 with: […]
The percentage of inhibition was calculated using the formula: [1−((UVinh−UVblank)/(UVctl−UVblank))]×100 […]

[4] = biological target: T2, HCV NS3/4A protease complex, H77 strain (Hepatitis C virus genotype 1a, UniProt P27958, C1454S/C1711G); assay: FRET peptide assay to monitor HCV NS3/4A proteolytic activity, H77 strain; type: biochemical, HCV genotype 1a; conditions: H77 strain (1a genotype)
T2 construct: DNA encoding the recombinant HCV NS3/4A protease complex (amino acids 1027 to 1711) for these strains; inferred from pET21b vector and Ni-NTA purification; made in house; host or cells: Escherichia coli BL21 (DE3), pET21b
T2 sequence (P27958 1027-1711 C1454S/C1711G, one chain of several): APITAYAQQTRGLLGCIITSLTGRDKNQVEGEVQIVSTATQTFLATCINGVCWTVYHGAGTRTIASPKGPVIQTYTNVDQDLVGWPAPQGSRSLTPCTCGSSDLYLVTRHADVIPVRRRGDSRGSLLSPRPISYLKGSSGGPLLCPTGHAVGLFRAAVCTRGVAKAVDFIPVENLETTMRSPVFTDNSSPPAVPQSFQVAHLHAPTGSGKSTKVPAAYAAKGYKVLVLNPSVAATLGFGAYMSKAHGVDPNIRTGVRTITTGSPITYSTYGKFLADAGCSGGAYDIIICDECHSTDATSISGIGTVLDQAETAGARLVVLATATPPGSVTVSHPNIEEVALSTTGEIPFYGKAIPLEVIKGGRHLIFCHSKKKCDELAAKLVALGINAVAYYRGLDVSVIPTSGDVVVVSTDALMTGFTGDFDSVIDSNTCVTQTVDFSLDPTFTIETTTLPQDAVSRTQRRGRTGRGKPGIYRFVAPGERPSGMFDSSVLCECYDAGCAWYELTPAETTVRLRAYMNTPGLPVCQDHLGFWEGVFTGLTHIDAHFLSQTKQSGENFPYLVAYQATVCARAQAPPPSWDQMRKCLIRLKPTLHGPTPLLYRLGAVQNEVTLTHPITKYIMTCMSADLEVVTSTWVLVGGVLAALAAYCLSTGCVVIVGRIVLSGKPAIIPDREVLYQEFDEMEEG
Source text: as §1, §2

HCV NS3/4A protease complex, BMS strain, sequence (P27958 1027-1711, one chain of several): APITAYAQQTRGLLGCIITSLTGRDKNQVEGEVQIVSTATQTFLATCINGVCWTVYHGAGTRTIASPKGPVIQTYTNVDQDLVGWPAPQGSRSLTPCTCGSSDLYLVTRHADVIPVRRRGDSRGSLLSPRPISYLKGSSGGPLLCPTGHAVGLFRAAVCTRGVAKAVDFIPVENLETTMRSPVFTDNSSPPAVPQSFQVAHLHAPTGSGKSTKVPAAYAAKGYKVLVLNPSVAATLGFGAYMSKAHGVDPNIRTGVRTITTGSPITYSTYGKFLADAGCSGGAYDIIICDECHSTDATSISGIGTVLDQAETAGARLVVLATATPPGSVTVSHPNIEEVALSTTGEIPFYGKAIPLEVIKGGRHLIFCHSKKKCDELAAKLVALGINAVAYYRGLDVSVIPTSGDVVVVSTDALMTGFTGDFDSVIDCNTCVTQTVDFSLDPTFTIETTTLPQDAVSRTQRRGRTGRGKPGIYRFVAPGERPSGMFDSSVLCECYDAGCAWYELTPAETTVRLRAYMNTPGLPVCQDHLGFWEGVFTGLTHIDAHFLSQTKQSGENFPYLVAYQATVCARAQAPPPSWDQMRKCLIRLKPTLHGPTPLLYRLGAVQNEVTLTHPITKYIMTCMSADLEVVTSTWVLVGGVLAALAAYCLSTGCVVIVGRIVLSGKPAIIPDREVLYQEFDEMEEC

With CC(C)(C)OC(=O)N[C@H]1CN(C2CC2)CCC/C=C\C2C[C@@]2(C(=O)NS(=O)(=O)C2CC2)NC(=O)[C@@H]2C[C@@H](Oc3ccccn3)CN2C1=O (some centres unmarked) [Compound 1] the IC50 [1] was 98 nM, the IC50 [2] was 12 nM and the IC50 [3] was greater than 100000 nM. It also gave an IC50 [4] of 18 nM.

For CC(C)(C)OC(=O)N[C@H]1CCCOC/C=C\[C@@H]2C[C@@]2(C(=O)NS(=O)(=O)C2CC2)NC(=O)[C@@H]2C[C@@H](OCc3ccccc3)CN2C1=O [Compound 5, (1S,4R,6S,14S,18R, 7-cis)-18-benzyloxy-14-tert-butoxycarbonylamino-4-cyclopropanesulfonylaminocarbonyl-2,15-dioxo-3,16-diaza-10-oxatricyclo[14.3.0.04,6]nonadec-7-ene], the melting point was 147 to 149 °C.
